According to PubChem BioAssay (NCI):
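Cells were grown in 96-well plates and exposed to each compound for 48 hours at five concentrations; endpoints were interpolated linearly between bracketing concentrations, or set to the highest concentration if not reached. Definition used: TGI = concentration required for complete inhibition of growth.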

Tests used:
Experiment in all cases: NCI tumour cell line growth inhibition, 48 h
786-0 renal = tested on: 786-0 renal
A549 NSCLC = tested on: A549 NSCLC
ACHN renal = tested on: ACHN renal
CAKI-1 renal = tested on: CAKI-1 renal
CCRF-CEM leukemia = tested on: CCRF-CEM leukemia
COLO 205 colon = tested on: COLO 205 colon
DLD-1 colon = tested on: DLD-1 colon
DMS 114 small cell lung = tested on: DMS 114 small cell lung
DMS 273 small cell lung = tested on: DMS 273 small cell lung
EKVX NSCLC = tested on: EKVX NSCLC
HCC-2998 colon = tested on: HCC-2998 colon
HCT-15 colon = tested on: HCT-15 colon
HL-60(TB) leukemia = tested on: HL-60(TB) leukemia
HOP-18 NSCLC = tested on: HOP-18 NSCLC
HOP-62 NSCLC = tested on: HOP-62 NSCLC
HT29 colon = tested on: HT29 colon
IGROV1 ovarian = tested on: IGROV1 ovarian
K-562 leukemia = tested on: K-562 leukemia
KM12 colon = tested on: KM12 colon
KM20L2 colon = tested on: KM20L2 colon
LOX IMVI melanoma = tested on: LOX IMVI melanoma
LXFL 529 NSCLC = tested on: LXFL 529 NSCLC
M14 melanoma = tested on: M14 melanoma
M19-MEL melanoma = tested on: M19-MEL melanoma
MALME-3M melanoma = tested on: MALME-3M melanoma
MOLT-4 leukemia = tested on: MOLT-4 leukemia
NCI-H226 lung = tested on: NCI-H226 lung
NCI-H23 lung = tested on: NCI-H23 lung
NCI-H460 lung = tested on: NCI-H460 lung
NCI-H522 lung = tested on: NCI-H522 lung
OVCAR-3 ovarian = tested on: OVCAR-3 ovarian
OVCAR-4 ovarian = tested on: OVCAR-4 ovarian
OVCAR-5 ovarian = tested on: OVCAR-5 ovarian
OVCAR-8 ovarian = tested on: OVCAR-8 ovarian
RPMI-8226 leukemia = tested on: RPMI-8226 leukemia
RXF 393 renal = tested on: RXF 393 renal
RXF-631 renal = tested on: RXF-631 renal
SF-268 CNS = tested on: SF-268 CNS
SF-295 CNS = tested on: SF-295 CNS
SF-539 CNS = tested on: SF-539 CNS
SK-MEL-2 melanoma = tested on: SK-MEL-2 melanoma
SK-MEL-28 melanoma = tested on: SK-MEL-28 melanoma
SK-MEL-5 melanoma = tested on: SK-MEL-5 melanoma
SK-OV-3 ovarian = tested on: SK-OV-3 ovarian
SN12C renal = tested on: SN12C renal
SNB-19 CNS = tested on: SNB-19 CNS
SNB-75 CNS = tested on: SNB-75 CNS
SW-620 colon = tested on: SW-620 colon
TK-10 renal = tested on: TK-10 renal
U251 CNS = tested on: U251 CNS
UACC-257 melanoma = tested on: UACC-257 melanoma
UACC-62 melanoma = tested on: UACC-62 melanoma
UO-31 renal = tested on: UO-31 renal
XF 498 CNS = tested on: XF 498 CNS
A498 renal = tested on: A498 renal
HCT-116 colon = tested on: HCT-116 colon
HOP-92 NSCLC = tested on: HOP-92 NSCLC
SNB-78 CNS = tested on: SNB-78 CNS
SR leukemia = tested on: SR leukemia

## NC(N)=NNC(=O)CCn1[nH]c(=O)c(Cl)c(Cl)c1=O
786-0 renal
  TGI: > 100 µM
A549 NSCLC
  TGI: > 100 µM
ACHN renal
  TGI: > 100 µM
CAKI-1 renal
  TGI: > 100 µM
CCRF-CEM leukemia
  TGI: > 100 µM
COLO 205 colon
  TGI: > 100 µM
DLD-1 colon
  TGI: > 100 µM
DMS 114 small cell lung
  TGI: > 100 µM
DMS 273 small cell lung
  TGI: > 100 µM
EKVX NSCLC
  TGI: > 100 µM
HCC-2998 colon
  TGI: > 100 µM
HCT-15 colon
  TGI: > 100 µM
HL-60(TB) leukemia
  TGI: > 100 µM
HOP-18 NSCLC
  TGI: > 100 µM
HOP-62 NSCLC
  TGI: > 100 µM
HT29 colon
  TGI: > 100 µM
IGROV1 ovarian
  TGI: > 100 µM
K-562 leukemia
  TGI: > 100 µM
KM12 colon
  TGI: > 100 µM
KM20L2 colon
  TGI: > 100 µM
LOX IMVI melanoma
  TGI: > 100 µM
LXFL 529 NSCLC
  TGI: > 100 µM
M14 melanoma
  TGI: > 100 µM
M19-MEL melanoma
  TGI: > 100 µM
MALME-3M melanoma
  TGI: > 100 µM
MOLT-4 leukemia
  TGI: > 100 µM
NCI-H226 lung
  TGI: > 100 µM
NCI-H23 lung
  TGI: > 100 µM
NCI-H460 lung
  TGI: > 100 µM
NCI-H522 lung
  TGI: > 100 µM
OVCAR-3 ovarian
  TGI: > 100 µM
OVCAR-4 ovarian
  TGI: > 100 µM
OVCAR-5 ovarian
  TGI: > 100 µM
OVCAR-8 ovarian
  TGI: > 100 µM
RPMI-8226 leukemia
  TGI: > 100 µM
RXF 393 renal
  TGI: > 100 µM
RXF-631 renal
  TGI: > 100 µM
SF-268 CNS
  TGI: > 100 µM
SF-295 CNS
  TGI: > 100 µM
SF-539 CNS
  TGI: > 100 µM
SK-MEL-2 melanoma
  TGI: > 100 µM
SK-MEL-28 melanoma
  TGI: > 100 µM
SK-MEL-5 melanoma
  TGI: > 100 µM
SK-OV-3 ovarian
  TGI: > 100 µM
SN12C renal
  TGI: > 100 µM
SNB-19 CNS
  TGI: > 100 µM
SNB-75 CNS
  TGI: > 100 µM
SW-620 colon
  TGI: > 100 µM
TK-10 renal
  TGI: > 100 µM
U251 CNS
  TGI: > 100 µM
UACC-257 melanoma
  TGI: > 100 µM
UACC-62 melanoma
  TGI: > 100 µM
UO-31 renal
  TGI: > 100 µM
XF 498 CNS
  TGI: > 100 µM

## COCOCCCCCO[Si](C)(C)C(C)(C)C
786-0 renal
  TGI: 29 µM
A498 renal
  TGI: 77.8 µM
A549 NSCLC
  TGI: 50 µM
ACHN renal
  TGI: 27.7 µM
CCRF-CEM leukemia
  TGI: 58.1 µM
COLO 205 colon
  TGI: 38.5 µM
DLD-1 colon
  TGI: > 100 µM
DMS 114 small cell lung
  TGI: 35.9 µM
EKVX NSCLC
  TGI: 46.8 µM
HCC-2998 colon
  TGI: 31.9 µM
HCT-116 colon
  TGI: 26.4 µM
HCT-15 colon
  TGI: 32.1 µM
HL-60(TB) leukemia
  TGI: 30.9 µM
HOP-18 NSCLC
  TGI: 65.3 µM
HOP-92 NSCLC
  TGI: 36.9 µM
HT29 colon
  TGI: 30.8 µM
IGROV1 ovarian
  TGI: 69.7 µM
K-562 leukemia
  TGI: 54.9 µM
KM12 colon
  TGI: 63.2 µM
KM20L2 colon
  TGI: 75.8 µM
LOX IMVI melanoma
  TGI: 31.2 µM
LXFL 529 NSCLC
  TGI: > 100 µM
M14 melanoma
  TGI: 48.7 µM
M19-MEL melanoma
  TGI: 70 µM
MALME-3M melanoma
  TGI: 47.9 µM
MOLT-4 leukemia
  TGI: 36.9 µM
NCI-H23 lung
  TGI: 42.7 µM
NCI-H460 lung
  TGI: 43.4 µM
NCI-H522 lung
  TGI: 28.6 µM
OVCAR-3 ovarian
  TGI: 27.6 µM
OVCAR-5 ovarian
  TGI: 44.9 µM
OVCAR-8 ovarian
  TGI: 41.2 µM
RPMI-8226 leukemia
  TGI: 51.9 µM
RXF 393 renal
  TGI: 31.9 µM
RXF-631 renal
  TGI: 52.8 µM
SF-268 CNS
  TGI: 27.9 µM
SF-295 CNS
  TGI: 30.1 µM
SF-539 CNS
  TGI: 40.8 µM
SK-MEL-2 melanoma
  TGI: 31 µM
SK-MEL-28 melanoma
  TGI: > 100 µM
SK-MEL-5 melanoma
  TGI: 30.3 µM
SK-OV-3 ovarian
  TGI: > 100 µM
SN12C renal
  TGI: 32 µM
SNB-19 CNS
  TGI: 30.6 µM
SNB-75 CNS
  TGI: 83.8 µM
SNB-78 CNS
  TGI: 48.3 µM
SR leukemia
  TGI: 49.6 µM
SW-620 colon
  TGI: 33.5 µM
TK-10 renal
  TGI: 97.6 µM
U251 CNS
  TGI: 29.4 µM
UACC-257 melanoma
  TGI: 40.2 µM
UACC-62 melanoma
  TGI: 64.6 µM
UO-31 renal
  TGI: 42.8 µM
XF 498 CNS
  TGI: 31.6 µM

## C(=C\c1cc(CCc2nc3ccccc3[nH]2)[nH]n1)/c1ccccc1
786-0 renal
  TGI: > 100 µM
A498 renal
  TGI: > 100 µM
A549 NSCLC
  TGI: > 100 µM
ACHN renal
  TGI: > 100 µM
CAKI-1 renal
  TGI: > 100 µM
CCRF-CEM leukemia
  TGI: > 100 µM
COLO 205 colon
  TGI: > 100 µM
DLD-1 colon
  TGI: > 100 µM
DMS 114 small cell lung
  TGI: > 100 µM
EKVX NSCLC
  TGI: > 100 µM
HCC-2998 colon
  TGI: > 100 µM
HCT-116 colon
  TGI: > 100 µM
HCT-15 colon
  TGI: > 100 µM
HL-60(TB) leukemia
  TGI: > 100 µM
HOP-18 NSCLC
  TGI: > 100 µM
HOP-62 NSCLC
  TGI: > 100 µM
HOP-92 NSCLC
  TGI: > 100 µM
HT29 colon
  TGI: > 100 µM
IGROV1 ovarian
  TGI: > 100 µM
K-562 leukemia
  TGI: > 100 µM
KM12 colon
  TGI: > 100 µM
KM20L2 colon
  TGI: > 100 µM
LOX IMVI melanoma
  TGI: > 100 µM
M14 melanoma
  TGI: > 100 µM
M19-MEL melanoma
  TGI: > 100 µM
MALME-3M melanoma
  TGI: > 100 µM
MOLT-4 leukemia
  TGI: > 100 µM
NCI-H226 lung
  TGI: > 100 µM
NCI-H23 lung
  TGI: > 100 µM
NCI-H460 lung
  TGI: > 100 µM
NCI-H522 lung
  TGI: > 100 µM
OVCAR-3 ovarian
  TGI: > 100 µM
OVCAR-4 ovarian
  TGI: > 100 µM
OVCAR-5 ovarian
  TGI: > 100 µM
OVCAR-8 ovarian
  TGI: > 100 µM
RPMI-8226 leukemia
  TGI: > 100 µM
RXF 393 renal
  TGI: > 100 µM
RXF-631 renal
  TGI: > 100 µM
SF-268 CNS
  TGI: > 100 µM
SF-295 CNS
  TGI: > 100 µM
SF-539 CNS
  TGI: > 100 µM
SK-MEL-28 melanoma
  TGI: > 100 µM
SK-MEL-5 melanoma
  TGI: > 100 µM
SK-OV-3 ovarian
  TGI: > 100 µM
SN12C renal
  TGI: > 100 µM
SNB-19 CNS
  TGI: > 100 µM
SNB-75 CNS
  TGI: > 100 µM
SR leukemia
  TGI: > 100 µM
SW-620 colon
  TGI: > 100 µM
TK-10 renal
  TGI: > 100 µM
U251 CNS
  TGI: > 100 µM
UACC-257 melanoma
  TGI: > 100 µM
UACC-62 melanoma
  TGI: > 100 µM
UO-31 renal
  TGI: > 100 µM
XF 498 CNS
  TGI: > 100 µM
